Source: ChEMBL document CHEMBL1201862, “PubChem BioAssay data set” (2004)
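Test compounds were applied to cells in 96-well plates for 48 hours at 5 doses. At the GI50, growth is halved.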 Active and inactive are the calls of the source. Cut-off read from the data, not from the text of the source: active = GI50 up to about 1.1 µM and inactive = higher.

Assays:
Experiment in all cases: NCI tumour cell line growth inhibition, 48 h
HT-29 = tested on: HT-29
UACC-257 = tested on: UACC-257
NCI-H23 = tested on: NCI-H23
SNB-19 = tested on: SNB-19
NCI-H460 = tested on: NCI-H460
KM12 = tested on: KM12
SNB-78 = tested on: SNB-78
KM-20L2 = tested on: KM-20L2
OVCAR-3 = tested on: OVCAR-3
OVCAR-5 = tested on: OVCAR-5
SK-OV-3 = tested on: SK-OV-3
DMS-273 = tested on: DMS-273
A549 = tested on: A549
M19-MEL = tested on: M19-MEL
HOP-92 = tested on: HOP-92
SK-MEL-28 = tested on: SK-MEL-28
NCI-H522 = tested on: NCI-H522
Malme-3M = tested on: Malme-3M
HOP-18 = tested on: HOP-18
A498 = tested on: A498
RXF 393 = tested on: RXF 393
SW-620 = tested on: SW-620
SF-295 = tested on: SF-295
OVCAR-8 = tested on: OVCAR-8
SK-MEL-2 = tested on: SK-MEL-2
IGROV-1 = tested on: IGROV-1
MOLT-4 = tested on: MOLT-4
DLD-1 = tested on: DLD-1
SF-539 = tested on: SF-539
SNB-75 = tested on: SNB-75
ACHN = tested on: ACHN
U-251 = tested on: U-251
SK-MEL-5 = tested on: SK-MEL-5
SN12C = tested on: SN12C
COLO 205 = tested on: COLO 205
HOP-62 = tested on: HOP-62
HCT-15 = tested on: HCT-15
CAKI-1 = tested on: CAKI-1
UO-31 = tested on: UO-31
HL-60 = tested on: HL-60
SF-268 = tested on: SF-268
TK-10 = tested on: TK-10
RPMI-8226 = tested on: RPMI-8226
786-0 = tested on: 786-0
LOX IMVI = tested on: LOX IMVI
HCC 2998 = tested on: HCC 2998
K562 = tested on: K562
CCRF-CEM = tested on: CCRF-CEM
UACC-62 = tested on: UACC-62
DMS-114 = tested on: DMS-114
EKVX = tested on: EKVX
LXFL 529 = tested on: LXFL 529
HCT-116 = tested on: HCT-116
M14 = tested on: M14
NCI-H226 = tested on: NCI-H226
OVCAR-4 = tested on: OVCAR-4
SR = tested on: SR

COc1cc(/C=C/C(=O)c2sc(Nc3ccccc3)nc2C)ccc1O
GI50 (HT-29): 97.9 µM (inactive) | GI50 (UACC-257): > 100 µM (inactive) | GI50 (NCI-H23): > 100 µM (inactive) | GI50 (SNB-19): > 100 µM (inactive) | GI50 (NCI-H460): > 100 µM (inactive) | GI50 (KM12): > 100 µM (inactive) | GI50 (SNB-78): > 100 µM (inactive) | GI50 (KM-20L2): > 100 µM (inactive) | GI50 (OVCAR-3): 33.5 µM (inactive) | GI50 (OVCAR-5): > 100 µM (inactive) | GI50 (SK-OV-3): > 100 µM (inactive) | GI50 (DMS-273): > 100 µM (inactive) | GI50 (A549): 71.8 µM (inactive) | GI50 (M19-MEL): > 100 µM (inactive) | GI50 (HOP-92): 35.6 µM (inactive) | GI50 (SK-MEL-28): > 100 µM (inactive) | GI50 (NCI-H522): 42.4 µM (inactive) | GI50 (Malme-3M): > 100 µM (inactive) | GI50 (HOP-18): > 100 µM (inactive) | GI50 (A498): > 100 µM (inactive) | GI50 (RXF 393): 51.9 µM (inactive) | GI50 (SW-620): > 100 µM (inactive) | GI50 (SF-295): 38.2 µM (inactive) | GI50 (OVCAR-8): 96.8 µM (inactive) | GI50 (SK-MEL-2): > 100 µM (inactive) | GI50 (IGROV-1): > 100 µM (inactive) | GI50 (MOLT-4): 46 µM (inactive) | GI50 (DLD-1): 37.5 µM (inactive) | GI50 (SF-539): > 100 µM (inactive) | GI50 (SNB-75): 23.5 µM (inactive) | GI50 (ACHN): 50.5 µM (inactive) | GI50 (U-251): > 100 µM (inactive) | GI50 (SK-MEL-5): 38.4 µM (inactive) | GI50 (SN12C): 59.6 µM (inactive) | GI50 (COLO 205): > 100 µM (inactive) | GI50 (HOP-62): 40.7 µM (inactive) | GI50 (HCT-15): 84.1 µM | GI50 (CAKI-1): 42.9 µM (inactive) | GI50 (UO-31): 43.6 µM (inactive) | GI50 (HL-60): 44.2 µM (inactive) | GI50 (SF-268): 49.2 µM (inactive) | GI50 (TK-10): > 100 µM (inactive) | GI50 (RPMI-8226): 83.2 µM (inactive) | GI50 (786-0): > 100 µM (inactive) | GI50 (LOX IMVI): 48.5 µM (inactive) | GI50 (HCC 2998): > 100 µM (inactive) | GI50 (K562): 56.4 µM (inactive) | GI50 (CCRF-CEM): 88.5 µM (inactive) | GI50 (UACC-62): 82.8 µM (inactive) | GI50 (DMS-114): 44.6 µM (inactive) | GI50 (EKVX): 19.8 µM (inactive)

CCOC(=O)NC(=O)c1cn(CCN2CCN(C(=O)CCCCCCCCCCNc3ncnc4[nH]cnc34)CC2)c(=O)[nH]c1=O
GI50 (HT-29): > 100 µM (inactive) | GI50 (UACC-257): > 100 µM (inactive) | GI50 (NCI-H23): > 100 µM (inactive) | GI50 (SNB-19): > 100 µM (inactive) | GI50 (NCI-H460): > 100 µM (inactive) | GI50 (KM12): > 100 µM (inactive) | GI50 (SNB-78): 32.4 µM (inactive) | GI50 (KM-20L2): > 100 µM (inactive) | GI50 (OVCAR-3): > 100 µM (inactive) | GI50 (OVCAR-5): > 100 µM (inactive) | GI50 (SK-OV-3): > 100 µM (inactive) | GI50 (DMS-273): > 100 µM (inactive) | GI50 (A549): > 100 µM (inactive) | GI50 (M19-MEL): > 100 µM (inactive) | GI50 (HOP-92): > 100 µM (inactive) | GI50 (SK-MEL-28): 11.5 µM (inactive) | GI50 (Malme-3M): 6.7 µM (inactive) | GI50 (HOP-18): > 100 µM (inactive) | GI50 (RXF 393): > 100 µM (inactive) | GI50 (SW-620): > 100 µM (inactive) | GI50 (SF-295): > 100 µM (inactive) | GI50 (OVCAR-8): > 100 µM (inactive) | GI50 (SK-MEL-2): > 100 µM (inactive) | GI50 (IGROV-1): > 100 µM (inactive) | GI50 (LXFL 529): 39.8 µM (inactive) | GI50 (MOLT-4): 43.9 µM (inactive) | GI50 (HCT-116): 40.1 µM (inactive) | GI50 (DLD-1): > 100 µM (inactive) | GI50 (SF-539): > 100 µM (inactive) | GI50 (M14): > 100 µM (inactive) | GI50 (SNB-75): > 100 µM (inactive) | GI50 (ACHN): 37.8 µM (inactive) | GI50 (NCI-H226): > 100 µM (inactive) | GI50 (U-251): > 100 µM (inactive) | GI50 (SK-MEL-5): 50.4 µM (inactive) | GI50 (SN12C): > 100 µM (inactive) | GI50 (COLO 205): > 100 µM (inactive) | GI50 (HOP-62): > 100 µM (inactive) | GI50 (HCT-15): > 100 µM | GI50 (CAKI-1): 79.8 µM (inactive) | GI50 (UO-31): > 100 µM (inactive) | GI50 (HL-60): 46.7 µM (inactive) | GI50 (SF-268): 13.1 µM (inactive) | GI50 (TK-10): > 100 µM (inactive) | GI50 (RPMI-8226): 94 µM (inactive) | GI50 (786-0): > 100 µM (inactive) | GI50 (LOX IMVI): > 100 µM (inactive) | GI50 (HCC 2998): > 100 µM (inactive) | GI50 (K562): 58.7 µM (inactive) | GI50 (CCRF-CEM): > 100 µM (inactive) | GI50 (OVCAR-4): > 100 µM (inactive) | GI50 (UACC-62): 25.8 µM (inactive) | GI50 (EKVX): > 100 µM (inactive) | GI50 (SR): > 100 µM (inactive)
